Measured values as given in patent US10155727B2, “Pyrazoles” (Janssen Pharmaceuticals, Inc., priority 2014, dated 2018).
Like-named read-outs stand apart in the source and are kept apart here.

How the values were obtained:
rat NR1/NR2B receptor = rat NR1/NR2B receptor (Rattus norvegicus (Rat), UniProt P35439+Q00960); assay: NR2B binding assay: inhibition of specific [3H]-Ifenprodil binding to the rat NR1/NR2B receptor; conditions: [3H]-Ifenprodil binding, rat brain membranes; for inhibition at 1 µM: 1 μM test compound, read-out: % INH @ 1 μM; for inhibition at 10 µM: 10 μM test compound, read-out: % INH @ 10 μM
Chain of rat NR1/NR2B receptor (Q00960 27-1482, other chains not shown): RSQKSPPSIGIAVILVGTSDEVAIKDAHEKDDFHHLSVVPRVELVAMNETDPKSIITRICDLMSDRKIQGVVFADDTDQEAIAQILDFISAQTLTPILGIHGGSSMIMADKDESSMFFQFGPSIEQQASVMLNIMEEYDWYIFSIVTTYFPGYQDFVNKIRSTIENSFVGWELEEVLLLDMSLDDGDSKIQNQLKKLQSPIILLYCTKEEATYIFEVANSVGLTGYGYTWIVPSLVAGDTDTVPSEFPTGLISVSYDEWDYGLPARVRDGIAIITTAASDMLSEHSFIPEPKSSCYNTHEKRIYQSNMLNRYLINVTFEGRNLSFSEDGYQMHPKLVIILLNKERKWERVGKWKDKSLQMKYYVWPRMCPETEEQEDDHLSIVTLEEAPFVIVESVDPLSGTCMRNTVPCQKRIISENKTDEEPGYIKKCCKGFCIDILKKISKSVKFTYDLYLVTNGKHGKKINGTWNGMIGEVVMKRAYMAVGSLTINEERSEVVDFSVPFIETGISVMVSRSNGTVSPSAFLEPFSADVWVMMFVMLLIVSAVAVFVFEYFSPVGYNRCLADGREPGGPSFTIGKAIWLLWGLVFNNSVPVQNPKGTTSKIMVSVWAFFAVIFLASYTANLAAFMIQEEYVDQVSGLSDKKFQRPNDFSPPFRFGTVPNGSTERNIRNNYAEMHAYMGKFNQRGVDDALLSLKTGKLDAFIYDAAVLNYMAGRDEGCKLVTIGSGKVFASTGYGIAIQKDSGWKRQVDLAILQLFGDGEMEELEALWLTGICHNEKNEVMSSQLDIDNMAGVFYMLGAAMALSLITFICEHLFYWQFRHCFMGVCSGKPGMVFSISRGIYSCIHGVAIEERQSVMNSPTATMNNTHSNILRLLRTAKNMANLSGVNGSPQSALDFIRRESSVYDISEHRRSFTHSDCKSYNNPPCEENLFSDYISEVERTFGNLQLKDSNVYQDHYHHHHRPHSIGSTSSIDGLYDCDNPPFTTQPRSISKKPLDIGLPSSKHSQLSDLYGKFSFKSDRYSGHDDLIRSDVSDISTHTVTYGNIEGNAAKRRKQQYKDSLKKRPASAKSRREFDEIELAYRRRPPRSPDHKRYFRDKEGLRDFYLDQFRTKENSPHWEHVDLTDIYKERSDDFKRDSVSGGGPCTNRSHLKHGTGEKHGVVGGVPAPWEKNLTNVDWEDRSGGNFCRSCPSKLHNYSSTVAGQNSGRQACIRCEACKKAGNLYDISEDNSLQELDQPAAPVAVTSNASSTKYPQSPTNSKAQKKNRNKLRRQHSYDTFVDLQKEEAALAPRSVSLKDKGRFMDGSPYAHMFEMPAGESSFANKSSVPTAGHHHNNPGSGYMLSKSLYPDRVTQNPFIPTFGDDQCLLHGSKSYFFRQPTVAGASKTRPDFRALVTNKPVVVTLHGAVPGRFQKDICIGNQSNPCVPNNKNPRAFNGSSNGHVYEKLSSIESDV
Method: Biological Assays Inhibition of Specific Binding to the Rat NR1/NR2B Receptor
Male Wistar rats (180 to 200 g) were killed by suffocation in a CO2 chamber for two minutes. Whole brains without cerebellum were removed and dissected on ice, placed into closed vials and stored at −70° C.
Membrane fractions were prepared and tested using standard techniques. At the time of the assay, 1 g of the brains was placed into 25 ml of 50 mM Tris/10 mM EDTA buffer, pH 7.1, (25 vol. per g of original tissue) and homogenized for 30 sec at 20000 rpm with an Ultraturrax T25 (Jahnke & Kunkel, IKA-Labortechnik, Staufen, Germany).
The supernatant was discarded and the pellet was homogenized on ice for 30 sec at 20000 rpm with an Ultraturrax and again centrifuged at 48000 g for 30 minutes at 4° C. The resultant pellet was resuspended in 25 ml of 50 mM Tris/10 mM EDTA buffer, homogenized for 30 sec with an Ultraturrax, aliquoted, frozen at −70° C. and stored until use.
After thawing on the day of the assay, a 5 ml membrane aliquot was centrifuged at 48000 g for 30 min at 4° C. The pellet was resuspended in 5 ml of 5 mM Tris/1 mM EDTA buffer, pH 7.4, homogenized for 30 sec at 20000 rpm with an Ultraturrax and centrifuged at 48000 g for 30 min at 4° C. This was repeated twice. The final pellet was homogenized in 5 ml of 5 mM Tris/1 mM EDTA buffer at 4° C. with an Ultraturrax and used for the Ifenprodil-binding assay as described in the following.
Nonspecific binding was estimated in the presence of […] CP101.606. The samples were incubated for 60 min. at 4° C.
The incubation was terminated by filtration of the membrane preparations using Filtermat B (Pharmacia, Uppsala Sweden) and a Micro Cell Harvester (Skatron, Lier, Norway). The Filtermat B had been presoaked with 1% polyethylene imine and carefully washed with 50 mM Tris/HCl-buffer pH 7.7 after the filtration to separate free and bound radioactivity.
The optimal amount of membrane preparation in the assay was determined and optimized for each membrane preparation separately before the test.
For pipetting of the incubation mixture the robot Biomek2000 (Fa. Beckman) was used.
For determination of IC50 values the Hill-plot, 2-parameter-model was used.

hERG receptor = hERG receptor (Homo sapiens (Human), UniProt Q12809); assay: HERGBD: inhibition of specific [3H]-Dofetilide binding to the hERG receptor
Chain of hERG receptor (Q12809 whole entry): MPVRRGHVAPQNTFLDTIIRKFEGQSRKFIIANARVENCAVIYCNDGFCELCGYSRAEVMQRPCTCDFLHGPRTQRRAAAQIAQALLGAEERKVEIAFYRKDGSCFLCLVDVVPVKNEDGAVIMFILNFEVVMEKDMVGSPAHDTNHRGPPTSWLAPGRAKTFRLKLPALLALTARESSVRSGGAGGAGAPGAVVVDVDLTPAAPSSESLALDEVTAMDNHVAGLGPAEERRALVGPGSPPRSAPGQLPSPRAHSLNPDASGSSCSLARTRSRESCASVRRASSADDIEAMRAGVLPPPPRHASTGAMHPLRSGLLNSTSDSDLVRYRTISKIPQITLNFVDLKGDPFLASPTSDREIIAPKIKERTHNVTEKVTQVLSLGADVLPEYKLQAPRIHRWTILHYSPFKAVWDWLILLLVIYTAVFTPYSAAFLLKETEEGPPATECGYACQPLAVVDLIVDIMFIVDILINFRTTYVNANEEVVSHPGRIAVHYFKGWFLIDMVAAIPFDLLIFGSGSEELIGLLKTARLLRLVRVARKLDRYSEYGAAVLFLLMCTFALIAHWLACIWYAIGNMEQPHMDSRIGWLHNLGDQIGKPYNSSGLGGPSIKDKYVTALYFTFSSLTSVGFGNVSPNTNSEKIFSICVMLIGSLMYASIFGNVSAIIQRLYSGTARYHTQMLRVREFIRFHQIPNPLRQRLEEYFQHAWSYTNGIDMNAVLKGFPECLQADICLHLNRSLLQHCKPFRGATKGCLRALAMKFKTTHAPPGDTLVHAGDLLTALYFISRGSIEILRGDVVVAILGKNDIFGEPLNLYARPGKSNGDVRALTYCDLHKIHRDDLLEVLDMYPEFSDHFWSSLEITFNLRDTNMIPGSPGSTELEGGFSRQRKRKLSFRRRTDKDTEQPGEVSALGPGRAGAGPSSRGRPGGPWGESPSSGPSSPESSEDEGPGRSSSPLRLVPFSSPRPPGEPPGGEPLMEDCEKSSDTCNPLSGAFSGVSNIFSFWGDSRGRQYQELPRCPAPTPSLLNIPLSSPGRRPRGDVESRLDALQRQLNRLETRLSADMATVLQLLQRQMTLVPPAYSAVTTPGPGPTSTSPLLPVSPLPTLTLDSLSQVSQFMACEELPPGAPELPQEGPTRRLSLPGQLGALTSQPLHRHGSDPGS
Method: Inhibition of Specific Binding to the hERG—Receptor (HERGBD)
A HEK cell line with stable transfected human ERG receptor was used for the assay. The cells were grown adherently and maintained in DULBECCOS' MEM medium with 10% FBS, 1% non-essential amino acids, 1% Penicillin/Streptomycin and 400 μg/ml G418 (Calbiochem).
For binding assays and membrane preparations the cell culture medium was removed, cells were washed with PBS. Crude membranes for radioligand binding experiments were prepared by scraping the cells off the dishes in ice cold 20 mM HEPES/0.1 mM KCl/pH 7.2. The cell suspension was homogenized on ice (Ultra turrax, 3×20 sec.) and the homogenate was spun for 10 min (1° C., 1000 g, OPTIMA, SW28, 2800 U/min). The supernatant was than centrifuged for 40 min at 100000 g (1° C., OPTIMA, SW28, 23000 U/min). The membrane pellet was re-suspended in 20 mM HEPES/0.1 mM KCl pH 7.2, frozen and stored at −80° C.
After thawing on the day of the assay, the membrane suspension was diluted further with 20 mM HEPES/0.1 mM KCl/pH 7.2.
The incubation mixture of 200 μl contained 1.5 nmol/l 3H-Dofetilide, optimized amount of membrane preparation, 20 mM HEPES/0.1 mM KCl/(pH 7.2) and inhibitor in 1% DMSO. Nonspecific binding was estimated in the presence of […] Dofetilide. The samples were incubated for 90 min. at RT.
Binding was terminated by filtration of the incubated membrane preparations using Filtermat B (Pharmacia, Uppsala Sweden) and a Micro Cell Harvester (Skatron, Lier, Norway). The Filtermat B had been presoaked with 1% polyethylen imine and carefully washed with 0.05 M Tris/HCl-buffer pH=7.7 after the filtration to separate free and bound radioactivity. The filters were counted in a scintillation counter (Betaplate 1205, Berthold, Wildbad, Germany) in order to determine the specific binding of [^3H]-Dofetilide.
The optimal amount of membrane preparation in the assay was determined and optimized for each membrane preparation separately in front of using the membranes in compound testing.
For pipetting of the incubation mixture we routinely use the robot Biomek2000 (Fa. Beckman).

[1] = [3H]-Dofetilide binding, membranes of HEK cells with human ERG receptor, read-out: IC50

inhibition at 1 µM (rat NR1/NR2B receptor) [%] | inhibition at 10 µM (rat NR1/NR2B receptor) [%] | SMILES | IC50 (rat NR1/NR2B receptor) [µM] | IC50 (hERG receptor) [µM] | IC50 (hERG receptor; [1]) [µM]
– | – | Clc1ccc(-c2cnn(Cc3cc[nH]n3)c2)cc1 [Example 77, 4-(4-Chlorophenyl)-1-(1H-pyrazol-3-ylmethyl)pyrazole] | 1.04 | 16.9 | –
– | – | Cc1n[nH]c(C)c1CCn1cc(-c2ccc(F)c(C(F)F)c2)cn1 [Example 36, 4-[2-[4-[3-(Difluoromethyl)-4-fluoro-phenyl]pyrazol-1-yl]ethyl]-3,5-dimethyl-1H-pyrazole] | 0.424 | 29.6 | –
– | – | Cc1cc(Cn2cc(-c3cccc(C(F)(F)F)c3)cn2)n(C)n1 [Example 48, 1,3-dimethyl-5-[[4-[3-(trifluoromethyl)phenyl]pyrazol-1-yl]methyl]pyrazole] | 1.97 | 37.4 | –
3.8 | 10.9 | Cc1cc(Cn2cc(-c3ccccc3)cn2)n(C)n1 [Example 86, 1,3-Dimethyl-5-[(4-phenylpyrazol-1-yl)methyl]pyrazole] | – | – | –
– | – | Cn1ccc(Cn2cc(-c3ccc(Br)cc3)cn2)n1 [Example 79, 3-[[4-(4-bromophenyl)pyrazol-1-yl]methyl]-1-methyl-pyrazole] | 4.72 | – | –
– | – | Cc1cc(Cn2cc(-c3ccc(Cl)c(OC(F)F)c3)cn2)[nH]n1 [Example 13, 4-[4-Chloro-3-(difluoromethoxy)phenyl]-1-[(3-methyl-1H-pyrazol-5-yl)methyl]pyrazole] | 0.0221 | 37 | –
– | – | Cc1cc(Cn2cc(-c3cc(F)cc(F)c3)cn2)n(C)n1 [Example 83, 5-[[4-(3,5-difluorophenyl)pyrazol-1-yl]methyl]-1,3-dimethyl-pyrazole] | 6.02 | – | –
– | – | Cc1ccc(-c2cnn(Cc3ccn(C)n3)c2)cc1F [Example 53, 3-[[4-(3-fluoro-4-methyl-phenyl)pyrazol-1-yl]methyl]-1-methyl-pyrazole Succinate] | 3.84 | – | –
– | – | FS(F)(F)(F)(F)c1cccc(-c2cnn(Cc3cc[nH]n3)c2)c1 [Example 72, 1-((1H-pyrazol-3-yl)methyl)-4-(3-(pentafluoro-16-sulfanyl)phenyl)-1H-pyrazole Succinate] | 0.0951 | 44.7 | –
– | – | Cc1cc(Cn2cc(-c3ccc(F)c(C(F)F)c3)cn2)n(C)n1 [Example 32, 5-[[4-[3-(Difluoromethyl)-4-fluoro-phenyl]pyrazol-1-yl]methyl]-1,3-dimethyl-pyrazole] | 0.323 | 38.6 | –
– | – | Cn1cc(Cn2cc(-c3ccc(F)c(OC(F)F)c3)cn2)cn1 [Example 19, 4-[3-(difluoromethoxy)-4-fluoro-phenyl]-1-[(1-methylpyrazol-4-yl)methyl]pyrazole] | 0.202 | > 100 | –
– | – | Cc1cc(Cn2cc(-c3ccc(Cl)c(C(F)F)c3)cn2)n(C)n1 [Example 25, 5-[[4-[4-Chloro-3-(difluoromethyl)phenyl]pyrazol-1-yl]methyl]-1,3-dimethyl-pyrazole] | 0.98 | – | 49.6
– | – | CCn1ccc(Cn2cc(-c3ccc(Cl)c(OC(F)F)c3)cn2)n1 [Example 8, 3-[[4-[4-Chloro-3-(difluoromethoxy)phenyl]pyrazol-1-yl]methyl]-1-ethyl-pyrazole] | 0.281 | 41 | –
– | – | Cn1ccc(Cn2cc(-c3ccc(Cl)c(Cl)c3)cn2)n1 [Example 63, 3-[[4-(3,4-dichlorophenyl)pyrazol-1-yl]methyl]-1-methyl-pyrazole] | 0.612 | – | 10.8
– | – | Cc1cc(Cn2cc(-c3ccc(Cl)c(Cl)c3)cn2)n(C)n1 [Example 64, 5-[[4-(3,4-dichlorophenyl)pyrazol-1-yl]methyl]-1,3-dimethyl-pyrazole] | 1.1 | 14.4 | –
-3.3 | 28.8 | Cn1nccc1Cn1cc(-c2ccccc2)cn1 [Example 87, 1-Methyl-5-[(4-phenylpyrazol-1-yl)methyl]pyrazole; succinic acid] | – | – | > 100
– | – | Cn1ccc(Cn2cc(-c3cccc(OC(F)(F)F)c3)cn2)n1 [Example 23, 1-Methyl-3-[[4-[3-(trifluoromethoxy)phenyl]pyrazol-1-yl]methyl]pyrazole Succinate] | 1.59 | 9.24 | –
22.5 | 25.3 | Cn1ccc(Cn2cc(-c3ccccc3)cn2)n1 [Example 85, 1-methyl-3-[(4-phenylpyrazol-1-yl)methyl]pyrazole] | – | – | –
– | – | Cn1ccc(Cn2cc(-c3ccc(Cl)cc3Cl)cn2)n1 [Example 66, 3-[[4-(2,4-dichlorophenyl)pyrazol-1-yl]methyl]-1-methyl-pyrazole Succinate] | 5.21 | 8.86 | –
– | – | Cc1cc(Cn2cc(-c3ccc(Cl)c(OC(F)F)c3)cn2)n(C)n1 [Example 3, 5-[[4-[4-Chloro-3-(difluoromethoxy)phenyl]pyrazol-1-yl]methyl]-1,3-dimethyl-pyrazole] | 0.146 | – | 23.3
– | – | Cn1ccc(Cn2cc(-c3ccc(F)c(Cl)c3)cn2)n1 [Example 61, 3-[[4-(3-chloro-4-fluoro-phenyl)pyrazol-1-yl]methyl]-1-methyl-pyrazole Succinate] | 1.38 | 24.7 | –
– | – | Cc1cc(Cn2cc(-c3ccc(Cl)c(F)c3)cn2)n(C)n1 [Example 60, 5-[[4-(4-chloro-3-fluoro-phenyl)pyrazol-1-yl]methyl]-1,3-dimethyl-pyrazole] | 2.17 | – | 31.6
– | – | CCn1ccc(Cn2cc(-c3ccc(F)c(C(F)F)c3)cn2)n1 [Example 38, 3-[[4-[3-(Difluoromethyl)-4-fluoro-phenyl]pyrazol-1-yl]methyl]-1-ethyl-pyrazole] | 0.443 | > 100 | –
– | – | Cc1cc(Cn2cc(-c3ccc(Cl)c(C(F)(F)F)c3)cn2)n(C)n1 [Example 29, 5-[[4-[4-chloro-3-(trifluoromethyl)phenyl]pyrazol-1-yl]methyl]-1,3-dimethyl-pyrazole Succinate] | 2.54 | 17.9 | –
– | – | Cc1n[nH]c(C)c1CCn1cc(-c2ccc(Cl)cc2)cn1 [Example 73, 4-[2-[4-(4-chlorophenyl)pyrazol-1-yl]ethyl]-3,5-dimethyl-1H-pyrazole] | 1.16 | 98 | –
– | – | Cc1cc(Cn2cc(-c3ccc(F)c(C)c3)cn2)n(C)n1 [Example 54, 5-[[4-(4-fluoro-3-methyl-phenyl)pyrazol-1-yl]methyl]-1,3-dimethyl-pyrazole Succinate] | – | – | > 100
– | – | Cn1ccc(Cn2cc(-c3cccc(Br)c3)cn2)n1 [Example 82, 3-[[4-(3-bromophenyl)pyrazol-1-yl]methyl]-1-methyl-pyrazole Succinate] | 2.62 | – | –
14.6 | 45.7 | Cn1ccc(Cn2cc(-c3cc(F)cc(F)c3)cn2)n1 [Example 84, 3-[[4-(3,5-difluorophenyl)pyrazol-1-yl]methyl]-1-methyl-pyrazole] | – | – | –

SMILES | inhibition at 1 µM (rat NR1/NR2B receptor) [%] | inhibition at 10 µM (rat NR1/NR2B receptor) [%] | IC50 (rat NR1/NR2B receptor) [µM] | IC50 (hERG receptor) [µM] | IC50 (hERG receptor; [1]) [µM]
Cc1cc(Cn2cc(-c3ccccn3)cn2)n(C)n1 [Example 105, 2-(1-((1,3-dimethyl-1H-pyrazol-5-yl)methyl)-1H-pyrazol-4-yl)pyridine Succinate] | -1.3 | 4.4 | – | – | –
